“Also recorded” adds a separate entry of the source.
Test system: amphetamine-induced hyperactivity
Experiment: amphetamine-induced hyperactivity model of mania in rats (activity meter, rearing)
Type: in vivo, male Sprague Dawley rats
Settings: Compound 1 200 mg/kg by gavage; for Vertical Activity (Rearing), Mean Activity, Amphetamine challenge: amphetamine 0.5 mg/kg s.c. challenge; for Vertical Activity (Rearing), Mean Activity, Amphetamine challenge / Vertical Activity (Rearing), Mean activity, Saline challenge: movements per 30 min, Li+ 6 mg/kg by gavage; for Vertical Activity (Rearing), Mean activity, Saline challenge: saline s.c. challenge
Protocol: Evaluation of possible anti-bipolar effects of Compound 1 was followed in the amphetamine-induced hyperactivity model of mania in rats. Activities of rats were followed in an activity meter (Elvicom, Israel) based on 2 levels laser beams and equipped with a computerized system that can count the vertical movements of rats (rearing). Activities were recorded for -30 min for each session, and the resultant appropriate movement reported per 30 min. Rats were housed under a 12 hr light/dark cycle and the behavioral testing was conducted in the light phase.
The activities of rats following treatment with Compound 1, Li^+ (the standard drug for mania), and a control group were followed before and after being challenged with amphetamine. The statistical analyses were conducted using a two way ANOVA for the effects of drugs, amphetamine (repeated measure) and the drug-amphetamine interaction.
In these experiments 30 male Sprague Dawley (weighing 200-250 g) rats were equally divided into 3 treatment groups: control, Li^+ (6 mg/kg by gavage)), and Compound 1 (200 mg/kg by gavage) (Drugs were suspended in 5% methyl cellulose). Half of the rats in each group were challenged (administered) amphetamine (0.5 mg/kg subsutaneously (s.c.)) and the other half was given saline (s.c.). Ten minutes later all rats were placed in the activity meter. One week later the procedure was repeated, except that the order of treatment was reversed; those rats which received saline on the first day were given amphetamine and those given amphetamine the first day were administered saline.

Compound | Vertical Activity (Rearing), Mean Activity, Amphetamine challenge | Vertical Activity (Rearing), Mean activity, Saline challenge | effect on amphetamine-induced rearing compared to control animals challenged with amphetamine (amphetamine 0.5 mg/kg s.c., p=0.06)
[Li] [Li, lithium, reference compound] | 126.7 | 59.8 | 
CCCC(CCC)C(=O)NCC(N)=O [Compound 1] | 71.3 | 34.1 | decreases amphetamine-induced hyperactivity; also recorded: reduced the rearing; also recorded: decreased the induced rearing in a similar manner as Li^+

Reference: patent publication US20030212142A1, “Use of derivatives of valproic acid and 2-valproenic acid amides for the treatment of mania in bipolar disorder” (Yissum Research Development Company of the Hebrew …, priority 2000, published 2003)
